# From US20240368106A1, “HYDROXY AND ALKOXY COUMARINS AS MODULATORS OF POLRMT” (Pretzel Therapeutics, Inc., priority 2021, published 2024)
# Target: POLRMT (Homo sapiens (Human), UniProt O00411)
# Assay: homogeneous TR-FRET assay of mitochondrial transcription (inhibition of POLRMT)
# Format: biochemical
# Details: 7.5 nM POLRMT, 15 nM TFB2M, 30 nM TFAM, 0.5 nM DNA template, 500 μM NTPs, 37° C., 60 minutes
# Method: The inhibitory activity of the compounds of the present invention against POLRMT were determined by assays based on Bergbrede, T., et al., “An adaptable high-throughput technology enabling the identification of specific transcription modulators,” SLAC Discov., 22, 378-386 (2017).
# The ability of some compounds of the present invention to inhibit POLRMT were determined in a homogeneous TR-FRET Assay using high-throughput screening in a 384-well plate format. This method is used to monitor the activity of mitochondrial transcription through measurement of its product, a 407 bp long RNA transcript. Detection of the product is facilitated by hybridization of two DNA-oligonucleotide probes to specific and adjacent sequences within the RNA product sequence. Upon annealing of the probes, two fluorophores are coupled directly to an acceptor nucleotide probe (ATT0647, 5′), or introduced via a coupled streptavidin with a biotinylated donor nucleotide probe (Europium cryptate) that is brought into sufficient proximity to serve as a fluorescence-donor-acceptor pair. Thus, a FRET signal at 665 nm is generated upon excitation at 340 nm.
# Proteins used as transcription factors (POLRMT: NP_005026.3, TFAM: NP_003192.1, TFB2M: NP_071761.1) are diluted from their stocks to working concentrations of 1 μM, 20 μM and 4 μM respectively, in a dilution buffer containing 20 mM Tris-HCl (pH 8.0), 200 mM NaCl, 10% (v/v) glycerol, 1 mM Dithiothreitol (DTT), 0.5 mM EDTA.
# DNA template is a pUC18 plasmid with the mitochondrial light strand promotor sequence (1-477) cloned between HindIII and BamHI sites. The DNA template is restriction linearized proximal to the promotor 3′-end (pUC-LSP). The reaction mixture (10 uL) containing 7.5 nM POLRMT, 15 nM of TFB2M, 30 nM of TFAM, 0.5 nM of DNA template and 500 μM nucleotide triphosphate mix (NTPs) in a reaction buffer (containing 10 mM Tris-HCl (pH 7.5), 10 mM MgCl2, 40 mM NaCl, 10 mM DTT, 0.005% (w/v) Tween-20, 160 units/ml Rnase inhibitor and 0.1 mg/mL BSA) are dispensed to compounds in microplates, using a Thermo Multidrop® dispenser, and incubated at 37° C. in a VWR INCU-Line incubator for 60 minutes after mixing. No nucleotide triphosphate mix is added to negative control samples. Microplates with compounds to be tested in the assay are prepared from 10 mM compound stocks in 100% DMSO, equal amounts of DMSO without any compound are added to positive control and negative control samples.
# During the incubation, a mix of the detection reagents is prepared in a buffer such that the enzymatic reaction is terminated due to chelating of Mg-ions and increased ionic strength, containing 50 mM Tris-HCl (pH 7.5), 700 mM NaCl, 20 mM EDTA, and 0.010% (w/v) Tween-20. Europium-streptavidin is pre-incubated with a 200-fold molar excess of a random sequence oligonucleotide to block unspecific binding of oligo, for two hours at ambient temperature in the dark. Afterwards, the blocked Europium-streptavidin is kept on ice until use.
# At the end of the enzymatic reaction time, 5 μL detection oligo mix in the detection buffer is added, and assay plates are mixed and kept at ambient temperature for one hour, protected from light. The concentration of the Acceptor nucleotide oligo (e.g., ATTO647N-5′-[…]-3′) and Donor nucleotide oligo (e.g., bio-5′-AACACATCTCT(-bio)GCCAAACCCCA-bio-3′) in each assay well is 1 nM, and 3 nM, respectively.
# After incubation with oligo mix, 5 μL of pre-blocked Europium-streptavidin reagent is dispensed to each assay well, assay plates are again mixed and kept at ambient temperature for one hour, protected from light.
# The generated signal is measured with BMG Pherastar microtiter plate reader with a TRF light unit, using excitation at 340 nm, an integration time of 200 μs, and a delay time of 100 μs, before detection at 620 nm and 665 nm. The ratio of donor- and acceptor-fluorescence is used as a measure of the generated transcript product (i.e. enzymatic activity).
# Chain of POLRMT (O00411 42-1230): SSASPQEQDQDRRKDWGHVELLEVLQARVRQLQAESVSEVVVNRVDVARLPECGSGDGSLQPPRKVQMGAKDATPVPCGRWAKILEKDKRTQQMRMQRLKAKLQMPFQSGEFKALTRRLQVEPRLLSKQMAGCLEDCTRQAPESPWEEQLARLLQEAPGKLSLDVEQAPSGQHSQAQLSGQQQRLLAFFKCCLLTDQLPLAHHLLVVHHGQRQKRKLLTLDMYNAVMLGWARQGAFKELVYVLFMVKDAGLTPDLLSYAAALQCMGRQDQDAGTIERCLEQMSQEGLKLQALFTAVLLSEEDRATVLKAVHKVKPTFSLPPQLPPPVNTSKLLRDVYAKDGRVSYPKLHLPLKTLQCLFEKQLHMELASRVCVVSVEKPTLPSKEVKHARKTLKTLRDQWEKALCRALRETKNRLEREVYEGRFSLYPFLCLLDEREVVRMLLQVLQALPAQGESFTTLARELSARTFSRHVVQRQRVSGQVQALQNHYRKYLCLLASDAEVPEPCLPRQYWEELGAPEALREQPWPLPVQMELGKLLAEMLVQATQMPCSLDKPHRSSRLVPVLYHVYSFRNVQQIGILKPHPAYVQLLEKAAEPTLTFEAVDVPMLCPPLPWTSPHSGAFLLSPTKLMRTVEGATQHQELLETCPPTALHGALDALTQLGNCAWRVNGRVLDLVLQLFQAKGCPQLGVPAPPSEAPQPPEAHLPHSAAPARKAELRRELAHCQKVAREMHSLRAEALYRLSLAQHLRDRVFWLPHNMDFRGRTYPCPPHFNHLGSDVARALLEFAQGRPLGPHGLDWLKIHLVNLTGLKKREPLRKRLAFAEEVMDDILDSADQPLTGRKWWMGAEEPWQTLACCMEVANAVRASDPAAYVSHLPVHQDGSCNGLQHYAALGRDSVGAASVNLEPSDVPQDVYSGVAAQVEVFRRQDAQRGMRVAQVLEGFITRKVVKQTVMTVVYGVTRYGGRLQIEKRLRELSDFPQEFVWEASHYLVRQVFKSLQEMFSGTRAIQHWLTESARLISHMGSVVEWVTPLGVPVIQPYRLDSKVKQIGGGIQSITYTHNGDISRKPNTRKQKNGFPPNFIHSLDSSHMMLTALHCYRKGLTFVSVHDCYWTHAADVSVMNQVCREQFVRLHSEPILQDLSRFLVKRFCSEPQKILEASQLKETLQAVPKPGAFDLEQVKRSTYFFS
row,Structure (SMILES),IC50 [µM]
1,"CCCOc1ccc2c(-c3ccccc3OC)cc(=O)oc2c1 [Example 35, 4-(2-methoxyphenyl)-7-propoxy-2H-chromen-2-one]",6
2,"CCCOc1ccc2c(-c3cccc4c3OCCO4)cc(=O)oc2c1 [Example 36, 4-(2,3-dihydrobenzo[b][1,4]dioxin-5-yl)-7-propoxy-2H-chromen-2-one]",50
3,"Cc1ccccc1-c1cc(=O)oc2cc(O)cc(C)c12 [Example 37, 7-hydroxy-5-methyl-4-(o-tolyl)-2H-chromen-2-one]",2
4,"COc1ccccc1-c1cc(=O)oc2cc(O)ccc12 [Example 50, 7-hydroxy-4-(2-methoxyphenyl)-2H-chromen-2-one]",10
5,"CCCOc1ccc2c(-c3csc(C)c3C)cc(=O)oc2c1 [Example 51, 4-(4,5-dimethylthiophen-3-yl)-7-propoxy-2H-chromen-2-one]",0.4
6,"CCCOc1ccc2c(-c3c(C)noc3C)cc(=O)oc2c1 [Example 52, 4-(3,5-dimethylisoxazol-4-yl)-7-propoxy-2H-chromen-2-one]",17
7,"CCCOc1ccc2c(-c3cccnc3C)cc(=O)oc2c1 [Example 53, 4-(2-methylpyridin-3-yl)-7-propoxy-2H-chromen-2-one]",0.8
8,"CCCOc1ccc2c(-c3ccncc3C)cc(=O)oc2c1 [Example 54, 4-(3-methylpyridin-4-yl)-7-propoxy-2H-chromen-2-one]",3
9,"CCCOc1ccc2c(-c3cnc(Cl)cc3C)cc(=O)oc2c1 [Example 55, 4-(6-chloro-4-methylpyridin-3-yl)-7-propoxy-2H-chromen-2-one]",5
10,"CC(=O)N1CCC(Oc2ccc3c(-c4ccc(F)cc4Cl)cc(=O)oc3c2)CC1 [Example 56, 7-((1-acetylpiperidin-4-yl)oxy)-4-(2-chloro-4-fluorophenyl)-2H-chromen-2-one]",8
11,"CC(=O)N1CCCC(Oc2ccc3c(-c4ccc(F)cc4Cl)cc(=O)oc3c2)C1 (stereo not drawn) [Example 57, 7-((1-acetylpiperidin-3-yl)oxy)-4-(2-chloro-4-fluorophenyl)-2H-chromen-2-one]",4
12,"Cc1ccccc1-c1cc(=O)oc2cc(OC(C)C)cc(C)c12 [Example 58, 7-isopropoxy-5-methyl-4-(o-tolyl)-2H-chromen-2-one]",0.4
13,"CC(=O)N1CC[C@H](Oc2ccc3c(-c4ccccc4C)cc(=O)oc3c2)C1 [Example 61, (S)-7-((1-acetylpyrrolidin-3-yl)oxy)-4-(o-tolyl)-2H-chromen-2-one]",28
14,"CC(=O)N1CC[C@@H](Oc2ccc3c(-c4ccccc4C)cc(=O)oc3c2)C1 [Example 62, (R)-7-((1-acetylpyrrolidin-3-yl)oxy)-4-(o-tolyl)-2H-chromen-2-one]",19
15,"Cc1ccccc1-c1cc(=O)oc2cc(O[C@H]3CCN(C)C3)ccc12 [Example 63, (S)-7-((1-methylpyrrolidin-3-yl)oxy)-4-(o-tolyl)-2H-chromen-2-one]",90
16,"CCCOc1ccc2c(-c3ncccc3C)cc(=O)oc2c1 [Example 64, 4-(3-methylpyridin-2-yl)-7-propoxy-2H-chromen-2-one]",54
17,"COCC(Oc1ccc2c(-c3ccccc3C)cc(=O)oc2c1)C(=O)O (stereo not drawn) [Example 65, 3-methoxy-2-((2-oxo-4-(o-tolyl)-2H-chromen-7-yl)oxy)propanoic acid]",0.8
18,"Cc1ccccc1-c1cc(=O)oc2cc(O[C@@H]3CCN(C)C3)ccc12 [Example 66, (R)-7-((1-methylpyrrolidin-3-yl)oxy)-4-(o-tolyl)-2H-chromen-2-one]",42

row,Structure (SMILES),IC50 [µM]
1,"COC[C@H](Oc1ccc2c(-c3ccccc3C)cc(=O)oc2c1)C(N)=O [Example 67, (S)-3-methoxy-2-((2-oxo-4-(o-tolyl)-2H-chromen-7-yl)oxy)propenamide]",16
2,"COC[C@@H](Oc1ccc2c(-c3ccccc3C)cc(=O)oc2c1)C(N)=O [Example 68, (R)-3-methoxy-2-((2-oxo-4-(o-tolyl)-2H-chromen-7-yl)oxy)propenamide]",0.7
3,"CNC(=O)[C@H](COC)Oc1ccc2c(-c3ccccc3C)cc(=O)oc2c1 [Example 69, (S)-3-methoxy-N-methyl-2-((2-oxo-4-(o-tolyl)-2H-chromen-7-yl)oxy)propenamide]",17
4,"CNC(=O)[C@@H](COC)Oc1ccc2c(-c3ccccc3C)cc(=O)oc2c1 [Example 70, (R)-3-methoxy-N-methyl-2-((2-oxo-4-(o-tolyl)-2H-chromen-7-yl)oxy)propenamide]",0.9
5,"COC[C@@H](Oc1ccc2c(-c3ccccc3C)cc(=O)oc2c1)C(=O)N(C)C [Example 71, (R)-3-methoxy-N,N-dimethyl-2-((2-oxo-4-(o-tolyl)-2H-chromen-7-yl)oxy)propenamide]",0.1
6,"COC[C@H](Oc1ccc2c(-c3ccccc3C)cc(=O)oc2c1)C(=O)N(C)C [Example 72, (S)-3-methoxy-N,N-dimethyl-2-((2-oxo-4-(o-tolyl)-2H-chromen-7-yl)oxy)propenamide]",10
7,"COCC(Oc1ccc2c(-c3ccc(F)cc3Cl)cc(=O)oc2c1)C(=O)O (stereo not drawn) [Example 73, 2-((4-(2-chloro-4-fluorophenyl)-2-oxo-2H-chromen-7-yl)oxy)-3-methoxypropanoic acid]",3
8,"COCC(Oc1ccc2c(-c3ccccc3Cl)cc(=O)oc2c1)C(=O)O (stereo not drawn) [Example 84, 2-((4-(2-chlorophenyl)-2-oxo-2H-chromen-7-yl)oxy)-3-methoxypropanoic acid]",2
9,CCOCC(Oc1ccc2c(-c3ccccc3C)cc(=O)oc2c1)C(N)=O (stereo not drawn) [Example 99],4
10,CCOCC(Oc1ccc2c(-c3ccccc3C)cc(=O)oc2c1)C(N)=O (stereo not drawn) [Example 100],0.9
11,"COC[C@@H](Oc1ccc2c(-c3ccccc3C)cc(=O)oc2c1)C(=O)O [Example 101, (R)-3-methoxy-2-((2-oxo-4-(o-tolyl)-2H-chromen-7-yl)oxy)propanoic acid]",0.4
12,"Cc1ccccc1-c1cc(=O)oc2cc(OC(CO)C(=O)O)ccc12 (stereo not drawn) [Example 102, 3-hydroxy-2-((2-oxo-4-(o-tolyl)-2H-chromen-7-yl)oxy)propanoic acid]",1
13,"Cc1ccccc1-c1cc(=O)oc2cc(O[C@@H](CO)C(=O)O)ccc12 [Example 103, (S)-3-hydroxy-2-((2-oxo-4-(o-tolyl)-2H-chromen-7-yl)oxy)propanoic acid]",16
14,"COC[C@H](Oc1ccc2c(-c3ccccc3C)cc(=O)oc2c1)C(=O)O [Example 104, (S)-3-methoxy-2-((2-oxo-4-(o-tolyl)-2H-chromen-7-yl)oxy)propanoic acid]",2
15,"COC(=O)C(COC(F)(F)F)Oc1ccc2c(-c3ccccc3C)cc(=O)oc2c1 (stereo not drawn) [Example 105, methyl 2-((2-oxo-4-(o-tolyl)-2H-chromen-7-yl)oxy)-3-(trifluoromethoxy)propanoate]",0.04
16,"Cc1ccccc1-c1cc(=O)oc2cc(OC(COC(F)(F)F)C(=O)O)ccc12 (stereo not drawn) [Example 106, 2-((2-oxo-4-(o-tolyl)-2H-chromen-7-yl)oxy)-3-(trifluoromethoxy)propanoic acid]",0.03
17,"Cc1cccc(C)c1-c1cc(=O)oc2cc(OCC#N)ccc12 [Example 107, 2-((4-(2,6-dimethylphenyl)-2-oxo-2H-chromen-7-yl)oxy)acetonitrile]",0.03
18,"Cc1ccccc1-c1cc(=O)oc2cc(OCC(N)=O)ccc12 [Example 108, 2-((2-oxo-4-(o-tolyl)-2H-chromen-7-yl)oxy)acetamide]",0.2
